Patent US11827645B2, “Spiro-γ-Lactams, and preparation method and use thereof” (Chongqing University of Arts and Sciences, priority 2020, dated 2023)

System: human pancreatic cell lines PANC
Assay: MTT assay of cancer cell viability, PANC cells
Type: cell-based
From the text: To evaluate potentials for developing a drug leading from the synthesized compounds, the MTT assay was used to measure cancer cell viability upon the drug treatment. Two cancer cell lines (PANC and U87) were selected, which are some of the representing solid tumor cell lines in the National Cancer Institute's 60 human tumor cell lines panel (see FIG. 1A).

**Q.** With `Cc1cccc(C)c1N1C(=O)C2(C=CC(=O)N2c2ccc(CNC(=O)OC(C)(C)C)cc2)C2C(=O)c3ccccc3OC21` (centres unmarked) [Compound 6j, Tert-butyl (4-(1-(2,6-dimethylphenyl)-2,4,5′-trioxo-1,3a,4,9a-tetrahydro-2H-spiro[chromeno[2,3-b]pyrrole-3,2′-pyrrol]-1′(5′H)-yl)benzyl)carbamate] as the compound, how does the anticancer activities (cancer cell viability, PANC) read?
**A.** The anticancer activities was “excellent anticancer activities”.

**Q.** What about the IC50 (human pancreatic cell lines PANC) of the same compound?
**A.** Its IC50 is 92 nM.
